Test results as given in EP0970046B1, “N-HYDROXY-2-(ALKYL, ARYL, OR HETEROARYL SULFANYL, SULFINYL OR SULFONYL)-3-SUBSTITUTED ALKYL, ARYL OR HETEROARYLAMIDES AS MATRIX METALLOPROTEINASE INHIBITORS” (Wyeth Holdings Corporation, priority 1997, dated 1998).
Where two headings read alike, the source gives them in different places.

Key:
TACE = target: T1, TACE (Homo sapiens, UniProt P78536); assay: Procedure for Measuring TACE Inhibition; format: biochemical; conditions: 1 µM; for inhibition at 1 µM: read-out: TACE % inhibition at 1 µM
T1 construct: purchased Immunex
T1 sequence (P78536 215-824): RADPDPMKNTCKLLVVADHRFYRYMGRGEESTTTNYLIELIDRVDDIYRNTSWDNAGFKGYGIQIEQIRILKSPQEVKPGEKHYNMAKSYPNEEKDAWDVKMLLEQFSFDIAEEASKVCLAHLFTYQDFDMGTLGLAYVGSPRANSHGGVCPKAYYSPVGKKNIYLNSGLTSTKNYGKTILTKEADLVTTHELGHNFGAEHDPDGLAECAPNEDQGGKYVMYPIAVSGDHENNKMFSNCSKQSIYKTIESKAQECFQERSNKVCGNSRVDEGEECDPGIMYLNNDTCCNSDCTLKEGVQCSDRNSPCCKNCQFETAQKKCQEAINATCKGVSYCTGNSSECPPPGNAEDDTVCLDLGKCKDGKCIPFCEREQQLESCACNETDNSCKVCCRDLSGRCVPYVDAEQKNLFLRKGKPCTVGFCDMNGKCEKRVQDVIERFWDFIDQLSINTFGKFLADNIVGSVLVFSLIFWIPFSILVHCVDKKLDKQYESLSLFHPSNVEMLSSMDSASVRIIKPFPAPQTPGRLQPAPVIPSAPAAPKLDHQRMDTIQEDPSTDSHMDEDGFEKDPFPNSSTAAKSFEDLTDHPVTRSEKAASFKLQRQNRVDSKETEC
Procedure: Using 96-well black microtiter plates, each well receives a solution composed of 10 µL TACE (Immunex, final concentration 1µg/mL), 70µL Tris buffer, pH 7.4 containing 10% glycerol (final concentration 10 mM), and 10 µL of test compound solution in DMSO (final concentration 1µM, DMSO concentration <1%) and incubated for 10 minutes at room temperature. The reaction is initiated by addition of a fluorescent peptidyl substrate (final concentration 100 µM) to each well and then shaking on a shaker for 5 sec. The reaction is read (excitation 340 nm, emission 420 nm) for 10 min. and the increase in fluorescence over time is plotted as a linear line. The slope of the line is calculated and represents the reaction rate. The linearity of the reaction rate is confirmed (r^2 >0.85). The mean (x±sem) of the control rate is calculated and compared for statistical significance (p<0.05) with drug-treated rates using Dunnett's multiple comparison test.

MMP 13 = MMP 13 (Homo sapiens, UniProt P45452); assay: MMP 13 inhibition (HTS; method not described); format: biochemical; conditions: for inhibition at 0.2 µM: read-out: MMP 13 % inhibition at 0.2 µM (HTS); for inhibition at 0.036 µM: read-out: MMP 13 % inhibition at 36 nM (HTS); for inhibition at 3600 µM: read-out: MMP 13 % inhibition at 3.6 mM (HTS)

Row | Compound | inhibition at 0.2 µM (MMP 13; HTS) [%] | inhibition at 0.036 µM (MMP 13; 36 nM, HTS) [%] | other results
1 | O=C(NO)C(Cc1ccccc1)S(=O)(=O)c1ccc(O)cc1 (stereo not shown) [Example 127, 2-(4-Hydroxybenzenesulfonyl)-N-hydroxy-3-phenyl-propionamide] | 47 |  | inhibition at 1 µM (TACE; Examples 110-168): 29.2%
2 | CS(=O)(=O)c1ccc(S(=O)(=O)C(COCc2ccccc2)C(=O)NO)cc1 (stereo not shown) [Example 148, 3-Benzyloxy-N-hydroxy-2-(4-methanesulfonyl-benzenesulfonyl)-propionamide] | 15 |  | inhibition at 1 µM (TACE; Examples 110-168): 43.5%
3 | N-Hydroxy-3-methyl-2-phenethylsulfinyl-butyramide [Example 117] |  |  | TACE % inhibition at 1 µM (TACE; Examples 110-168): 8.1%; MMP 13 % inhibition at 0.2 µM (HTS) (MMP 13; HTS): 7%
4 | O=C(NO)C(COCc1ccccc1)SCc1ccccc1Cl (stereo not shown) [Example 149, 3-Benzyloxy-N-hydroxy-2-(2-chloro-benzylsulfanyl)-propionamide] | 13 |  | inhibition at 1 µM (TACE; Examples 110-168): 4.41%
5 | CCCCCCC(Sc1nc(-c2ccccc2)cs1)C(=O)NO (stereo not shown) [Example 172, 2-(4-Phenyl-thiazole-2-sulfanyl)-octanoic acid hydroxyamide] |  |  | TACE % inhibition at 1 µM (TACE; Examples 169-240): 29.4%; MMP 13 % inhibition at 36 nM (HTS) (MMP 13; 36 nM, HTS): 34%
6 | CCCCCCC(C(=O)NO)[S+]([O-])c1ccccn1 (stereo not shown) [Example 178, 2-(2-Pyridine-2-sulfinyl)-octanoic acid hydroxyamide] |  | -10 | inhibition at 3600 µM (MMP 13): 39%
7 | CC(C)CCSC(C)C(=O)NO (stereo not shown) [Example 112, N-Hydroxy-2-(3-methyl-butane-1-sulfanyl)-propionamide] |  |  | TACE % inhibition at 1 µM (TACE; Examples 110-168): 33.7%; MMP 13 % inhibition at 0.2 µM (HTS) (MMP 13; HTS): 50%
8 | CCCCCCCCC(C(=O)NO)S(=O)(=O)c1ccc(S(C)(=O)=O)cc1 (stereo not shown) [Example 145, 2-(4-methanesulfonyl-benzenesulfonyl)decanoic acid hydroxamide] | 45 |  | 
9 | CCCCCCC(C(=O)NO)S(=O)(=O)c1ccc(CCC(=O)NO)cc1 (stereo not shown) [Example 193, 3-[4-(1-Hydroxycarbamoyl-heptylsulfonyl)-phenyl]-propionic acid hydroxy amide] |  | -32 | inhibition at 1 µM (TACE; Examples 169-240): 14.9%
10 | CCCCCCCCC(C(=O)NO)[S+]([O-])c1ccc([S+](C)[O-])cc1 (stereo not shown) [Example 144, 2-(4-methanesulfinyl-benzenesulfinyl)decanoic acid hydroxamide] | 38 |  | 
11 | O=C(NO)C(COCc1ccccc1)S(=O)(=O)Cc1ccccc1Cl (stereo not shown) [Example 151, 3-Benzyloxy-N-hydroxy-2-(2-chloro-benzylsulfonyl)-propionamide] | 6 |  | inhibition at 1 µM (TACE; Examples 110-168): 5.93%
12 | CCCCCCCCC(Sc1cccc(OC)c1)C(=O)NO (stereo not shown) [Example 140, 2-(3-methoxy-benzenesulfanyl)decanoic acid hydroxamide] | 29 |  | 
13 | O=C(CCC(Sc1ccccc1C(F)(F)F)C(=O)NO)NO (stereo not shown) [Example 137, 4-Hydroxycarbamoyl-4-(2-trifluoromethyl-benzenesulfanyl)-butyric acid hydroxyamide] |  |  | TACE % inhibition at 1 µM (TACE; Examples 110-168): 13.35%; MMP 13 % inhibition at 0.2 µM (HTS) (MMP 13; HTS): 83%
14 | CCCCCCC(C(=O)NO)S(=O)(=O)c1[nH]c2ccccc2[n+]1[O-] (stereo not shown) [Example 181, 2-(3-Oxy-1H-benzimidazole-2-sulfonyl)-octanoic acid hydroxyamide] |  | 6 | inhibition at 360 µM (MMP 13; read-out: MMP 13 % inhibition at 0.36 mM (HTS)): 35%; inhibition at 3600 µM (MMP 13): 62%
15 | CCC(C(=O)NO)S(=O)(=O)C(C)C(=O)NO (stereo not shown) [Example 124, (1-Hydroxycarbamoyl-propane-1-sulfonyl)-propionic acid hydroxyamide] |  |  | MMP 13 % inhibition at 0.2 µM (HTS) (MMP 13; HTS): 0%
16 | CCCCCCCCC(C(=O)NO)[S+]([O-])c1cccc(OC)c1 (stereo not shown) [Example 141, 2-(3-Methoxy-benzenesulfinyl)decanoic acid hydroxamide] | 32 |  | 
17 | N=C(N)NCCCC(C(=O)NO)S(=O)(=O)c1ccccc1Br (stereo not shown) [Example 159, 2-(2-Bromosulfonyl)-5-guanidino-pentanoic acid hydroxyamide] | 49 |  | 
18 | C[S+]([O-])c1ccc([S+]([O-])C(COCc2ccccc2)C(=O)NO)cc1 (stereo not shown) [Example 147, 3-Benzyloxy-N-hydroxy-2-(4-methanesulfinyl-benzenesulfinyl)-propionamide] | 73 |  | 
19 | O=C(CCC(C(=O)NO)S(=O)(=O)c1ccccc1C(F)(F)F)NO (stereo not shown) [Example 139, 4-Hydroxycarbamoyl-4-(2-trifluoromethyl-benzenesulfonyl)-butyric acid hydroxyamide] | 8 |  | 
20 | CCCCCCCCC(C(=O)NO)S(=O)(=O)c1cccc(OC)c1 (stereo not shown) [Example 142, 2-(3-Methoxy-benzenesulfonyl)decanoic acid hydroxamide] | 69 |  | 
21 | CCCCCCC(C(=O)NO)[S+]([O-])CC(=O)Nc1ccc2ccccc2c1 (stereo not shown) [Example 191, 2-(Naphthalen-2-ylcarbamoylmethanesulfinyl)-octanoic acid hydroxyamide] |  | -45 | 
22 | CSc1ccc(SC(COCc2ccccc2)C(=O)NO)cc1 (stereo not shown) [Example 146, 3-benzyloxy-N-hydroxy-2-(4-methanesulfanyl-benzenesulfanyl)-propionamide] | 68 |  | 
23 | CCCCCCC(Sc1ccc(OCc2ccccc2)cc1)C(=O)NO (stereo not shown) [Example 199, 2-(4-Benzyloxy-phenylsulfanyl)-octanoic acid hydroxyamide] |  | -10 | 
24 | CC(=O)Nc1ccc([S+]([O-])C(Cc2ccccc2)C(=O)NO)cc1 (stereo not shown) [Example 129, 2-(4-Acetylamino-benzenesulfinyl)-N-hydroxy-3-phenyl-propionamide] | 90 |  | 
25 | CCCCCCC(Sc1ccc(OS(=O)(=O)c2ccccc2)cc1)C(=O)NO (stereo not shown) [Example 232, Benzenesulfonic acid 4-(1-hydroxycarbamoyl-heptylsulfanyl)-phenyl ester] |  | 30 | 
26 | (1-Hydroxycarbamoyl-propane-1-sulfinyl)-propionic acid hydroxyamide [Example 123] |  |  | MMP 13 % inhibition at 0.2 µM (HTS) (MMP 13; HTS): 0%

More lines, main results first:

Row | inhibition at 0.2 µM (MMP 13; HTS) [%] | inhibition at 0.036 µM (MMP 13; 36 nM, HTS) [%] | Compound | other results
27 |  | -17 | CCCCCCC(C(=O)NO)S(=O)(=O)c1ncc[nH]1 (stereo not shown) [Example 194, 2-(1H-Imidazole-2-sulfonyl)-octanoic acid hydroxyamide] | inhibition at 1 µM (TACE; Examples 169-240): 5.4%
28 | 33 |  | N=C(N)NCCCC(C(=O)NO)[S+]([O-])c1ccccc1Br (stereo not shown) [Example 158, 2-(2-Bromosulfinyl)-5-guanidino-pentanoic acid hydroxyamide] | 
29 |  | -6 | CCCCCCC(C(=O)NO)S(=O)(=O)CCc1cccc[n+]1[O-] (stereo not shown) [Example 183, 2-[2-(1-Oxy-pyridin-2-yl)-ethanesulfonyl]-octanoic acid hydroxyamide] | 
30 | 19 |  | N=C(N)NCCCC(Sc1ccccc1Br)C(=O)NO (stereo not shown) [Example 157, 2-(2-Bromosulfanyl)-5-guanidino-pentanoic acid hydroxyamide] | 
31 |  | -9 | CCCCCCC(C(=O)NO)S(=O)(=O)c1nccs1 (stereo not shown) [Example 195, 2-(Thiazol-2-ylsulfonyl)-octanoic acid hydroxyamide] | 
32 |  | 5 | CCCCCCC(C(=O)NO)[S+]([O-])c1nc2ccccc2[nH]1 (stereo not shown) [Example 177, 2-(2-Benzimidazol-2-ylsulfinyl)-octanoic acid hydroxyamide] | 
33 | 20 |  | O=C(CCC(C(=O)NO)[S+]([O-])c1ccccc1C(F)(F)F)NO (stereo not shown) [Example 138, 4-Hydroxycarbamoyl-4-(2-trifluoromethyl-benzenesulfinyl)-butyric acid hydroxyamide] | 
34 |  | 18 | CCCCCCC(SCCc1ccccn1)C(=O)NO (stereo not shown) [Example 173, 2-(2-Pyridin-2-yl-ethylsulfanyl)-octanoic acid hydroxyamide] | 
35 | 71 |  | CCCCCCC(Sc1ccc(OC)c(OC)c1)C(=O)NO (stereo not shown) [Example 165, 2-(3,4-Dimethoxybenzenesulfanyl)-octanoic acid hydroxyamide] | 
36 | 14 |  | CCCCCCC(Sc1cc(Cl)ccc1Cl)C(=O)NO (stereo not shown) [Example 160, 2-(2,5-dichlorobenzenesulfanyl)-octanoic acid hydroxyamide] | 
37 | 13 |  | CCCCCCC(Sc1cccc(OC)c1)C(=O)NO (stereo not shown) [Example 162, 2-(3-Methoxybenzenesulfanyl)-ocranoic acid hydroxyamide] | 
38 | 21 |  | CCCCCCC(Sc1nc2ccccc2[nH]1)C(=O)NO (stereo not shown) [Example 168, 2-(2-Benzimidazol-2-ylsulfanyl)-octanoic acid hydroxyamide] | 
39 |  | 32 | CCCCCCC(Sc1nc2ccccc2s1)C(=O)NO (stereo not shown) [Example 170, 2-(2-Benzothiazol-2-ylsulfanyl)-octanoic acid hydroxyamide] | 
40 | 74 |  | CCCCCCC(C(=O)NO)S(=O)(=O)c1cccc(OC)c1 (stereo not shown) [Example 164, 2-(3-Methoxybenzenesulfonyl)-octanoic acid hydroxyamide] | 
41 |  | -39 | CCCCCCC(C(=O)NO)S(=O)(=O)CC1NC(=O)NC1=O (stereo not shown) [Example 198, 2-(2,5-Dioxo-imidazolidin-4-ylmethylsulfonyl)-octanoic acid hydroxyamide] | 
42 | 71 |  | COC(=O)CCC(Sc1ccc(SC)cc1)C(=O)NO (stereo not shown) [Example 131, 4-Hydroxycarbamoyl-4-(4-methanesulfanyl-phenylsulfanyl)-butyric acid methyl ester] | 
